In ChEMBL document CHEMBL3991601, “The target landscape of clinical kinase drugs” (Science, 2017):
Calls of active or inactive are those of the source.

Assays:
[1] = target: T1, Acyl-CoA dehydrogenase family member 10 (Homo sapiens, UniProt Q6JQN1)
T1 sequence (Q6JQN1 whole entry): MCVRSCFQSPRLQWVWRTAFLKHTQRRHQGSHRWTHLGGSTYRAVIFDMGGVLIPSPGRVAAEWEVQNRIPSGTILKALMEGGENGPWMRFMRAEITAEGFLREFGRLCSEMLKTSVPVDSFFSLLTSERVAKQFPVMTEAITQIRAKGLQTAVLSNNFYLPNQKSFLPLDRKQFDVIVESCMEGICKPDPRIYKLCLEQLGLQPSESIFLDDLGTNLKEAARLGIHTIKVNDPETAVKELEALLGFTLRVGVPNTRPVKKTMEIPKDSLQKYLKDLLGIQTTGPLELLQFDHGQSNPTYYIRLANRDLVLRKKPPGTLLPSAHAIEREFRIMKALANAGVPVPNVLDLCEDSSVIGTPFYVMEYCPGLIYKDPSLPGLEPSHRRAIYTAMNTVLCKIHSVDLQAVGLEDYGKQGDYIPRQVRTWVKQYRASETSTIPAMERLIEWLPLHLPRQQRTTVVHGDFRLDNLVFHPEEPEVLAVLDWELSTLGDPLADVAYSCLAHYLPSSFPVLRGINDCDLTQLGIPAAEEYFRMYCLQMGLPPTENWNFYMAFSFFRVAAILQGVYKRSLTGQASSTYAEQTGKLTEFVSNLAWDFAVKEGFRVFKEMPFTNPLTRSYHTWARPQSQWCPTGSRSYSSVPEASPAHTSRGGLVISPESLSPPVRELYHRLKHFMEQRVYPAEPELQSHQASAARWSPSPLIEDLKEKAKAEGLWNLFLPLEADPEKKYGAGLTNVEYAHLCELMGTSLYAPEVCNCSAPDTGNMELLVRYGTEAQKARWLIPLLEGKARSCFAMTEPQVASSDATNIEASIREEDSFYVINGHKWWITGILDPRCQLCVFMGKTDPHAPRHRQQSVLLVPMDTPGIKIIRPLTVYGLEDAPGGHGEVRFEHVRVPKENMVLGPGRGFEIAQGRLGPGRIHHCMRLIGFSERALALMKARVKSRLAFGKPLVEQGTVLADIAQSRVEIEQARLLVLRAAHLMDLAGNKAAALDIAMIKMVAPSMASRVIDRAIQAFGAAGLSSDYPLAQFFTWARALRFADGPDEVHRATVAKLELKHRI

[2] = target: Cyclin-dependent kinase 4 (Homo sapiens, UniProt P11802)
[3] = target: Casein kinase I isoform delta (Homo sapiens, UniProt P48730)
Ephrin type-A receptor 7 = Ephrin type-A receptor 7 (Homo sapiens, UniProt Q15375)
Ephrin type-B receptor 4 = target: T2, Ephrin type-B receptor 4 (Homo sapiens, UniProt P54760)
T2 sequence (P54760 whole entry): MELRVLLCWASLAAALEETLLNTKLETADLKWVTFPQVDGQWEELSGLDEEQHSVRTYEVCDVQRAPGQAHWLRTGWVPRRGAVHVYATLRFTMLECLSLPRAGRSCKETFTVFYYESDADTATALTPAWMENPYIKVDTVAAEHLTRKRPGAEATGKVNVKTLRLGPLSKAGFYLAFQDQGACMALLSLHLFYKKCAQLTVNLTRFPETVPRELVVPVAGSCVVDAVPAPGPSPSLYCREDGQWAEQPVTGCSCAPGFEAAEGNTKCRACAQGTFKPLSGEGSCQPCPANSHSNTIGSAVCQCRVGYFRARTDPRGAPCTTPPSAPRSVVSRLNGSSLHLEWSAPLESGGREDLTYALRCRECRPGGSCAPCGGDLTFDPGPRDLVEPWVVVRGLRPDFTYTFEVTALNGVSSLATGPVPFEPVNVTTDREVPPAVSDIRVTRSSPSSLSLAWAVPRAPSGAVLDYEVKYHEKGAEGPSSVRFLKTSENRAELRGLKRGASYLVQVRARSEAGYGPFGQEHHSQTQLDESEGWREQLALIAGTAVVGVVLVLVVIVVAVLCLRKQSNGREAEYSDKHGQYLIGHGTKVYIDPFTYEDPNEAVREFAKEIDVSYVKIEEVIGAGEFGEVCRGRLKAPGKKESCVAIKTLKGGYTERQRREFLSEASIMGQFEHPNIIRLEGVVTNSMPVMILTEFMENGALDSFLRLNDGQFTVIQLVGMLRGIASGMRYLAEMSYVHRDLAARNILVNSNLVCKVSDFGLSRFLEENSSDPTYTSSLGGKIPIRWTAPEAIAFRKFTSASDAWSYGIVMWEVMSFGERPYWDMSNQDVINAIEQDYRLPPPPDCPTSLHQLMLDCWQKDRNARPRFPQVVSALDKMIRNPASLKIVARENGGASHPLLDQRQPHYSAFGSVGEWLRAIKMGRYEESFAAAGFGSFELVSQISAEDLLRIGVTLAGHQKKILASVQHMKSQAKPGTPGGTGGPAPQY

[4] = target: T3, MAP kinase-activated protein kinase 5 (Homo sapiens, UniProt Q8IW41)
T3 sequence (Q8IW41 whole entry): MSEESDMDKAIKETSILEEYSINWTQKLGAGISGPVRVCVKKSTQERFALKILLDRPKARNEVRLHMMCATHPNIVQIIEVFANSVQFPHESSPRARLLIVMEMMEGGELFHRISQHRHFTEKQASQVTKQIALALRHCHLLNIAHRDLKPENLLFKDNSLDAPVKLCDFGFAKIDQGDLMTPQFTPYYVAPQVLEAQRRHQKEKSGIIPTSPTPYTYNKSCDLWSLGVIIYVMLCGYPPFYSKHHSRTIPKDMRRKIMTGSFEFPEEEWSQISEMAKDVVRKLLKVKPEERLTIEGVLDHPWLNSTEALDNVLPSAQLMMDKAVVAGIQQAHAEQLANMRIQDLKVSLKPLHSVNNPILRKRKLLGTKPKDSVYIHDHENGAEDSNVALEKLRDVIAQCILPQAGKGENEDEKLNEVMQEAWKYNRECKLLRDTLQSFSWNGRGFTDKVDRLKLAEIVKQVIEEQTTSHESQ

[5] = target: Protein-tyrosine kinase 2-beta (Homo sapiens, UniProt Q14289)
[6] = target: Ras-related protein Rab-6A (Homo sapiens, UniProt P20340)
DNA topoisomerase 2-beta = DNA topoisomerase 2-beta (Homo sapiens, UniProt Q02880)
[7] = target: Glycogen synthase kinase-3 alpha (Homo sapiens, UniProt P49840)
Note: in the data inactive means no Kd found up to 30 µM.

Chain of Glycogen synthase kinase-3 alpha (P49840 whole entry): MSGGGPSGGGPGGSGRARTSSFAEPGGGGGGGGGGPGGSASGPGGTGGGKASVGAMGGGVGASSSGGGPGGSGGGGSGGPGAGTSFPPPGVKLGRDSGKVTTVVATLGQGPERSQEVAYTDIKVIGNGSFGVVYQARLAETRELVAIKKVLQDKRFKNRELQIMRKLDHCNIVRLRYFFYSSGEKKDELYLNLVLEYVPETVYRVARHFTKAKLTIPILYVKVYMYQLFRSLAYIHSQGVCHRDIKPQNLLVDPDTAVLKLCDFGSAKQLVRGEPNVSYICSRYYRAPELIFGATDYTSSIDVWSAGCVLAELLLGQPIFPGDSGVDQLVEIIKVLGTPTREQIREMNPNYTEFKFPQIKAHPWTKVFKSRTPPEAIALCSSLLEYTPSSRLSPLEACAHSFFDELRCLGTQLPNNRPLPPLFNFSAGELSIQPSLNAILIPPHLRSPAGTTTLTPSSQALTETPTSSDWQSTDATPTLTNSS
Chain of Casein kinase I isoform delta (P48730 whole entry, canonical isoform): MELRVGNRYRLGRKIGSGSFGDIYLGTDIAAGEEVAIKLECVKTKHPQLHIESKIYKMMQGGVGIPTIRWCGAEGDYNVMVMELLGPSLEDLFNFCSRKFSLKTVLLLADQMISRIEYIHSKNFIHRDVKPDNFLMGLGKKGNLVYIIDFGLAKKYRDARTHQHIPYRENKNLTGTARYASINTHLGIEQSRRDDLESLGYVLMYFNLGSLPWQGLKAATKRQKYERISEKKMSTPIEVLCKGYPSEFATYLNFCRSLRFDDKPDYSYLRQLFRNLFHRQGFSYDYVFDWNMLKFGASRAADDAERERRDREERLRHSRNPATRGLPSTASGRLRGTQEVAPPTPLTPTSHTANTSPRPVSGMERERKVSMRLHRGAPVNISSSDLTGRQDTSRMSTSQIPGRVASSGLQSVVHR
Chain of Ephrin type-A receptor 7 (Q15375 whole entry): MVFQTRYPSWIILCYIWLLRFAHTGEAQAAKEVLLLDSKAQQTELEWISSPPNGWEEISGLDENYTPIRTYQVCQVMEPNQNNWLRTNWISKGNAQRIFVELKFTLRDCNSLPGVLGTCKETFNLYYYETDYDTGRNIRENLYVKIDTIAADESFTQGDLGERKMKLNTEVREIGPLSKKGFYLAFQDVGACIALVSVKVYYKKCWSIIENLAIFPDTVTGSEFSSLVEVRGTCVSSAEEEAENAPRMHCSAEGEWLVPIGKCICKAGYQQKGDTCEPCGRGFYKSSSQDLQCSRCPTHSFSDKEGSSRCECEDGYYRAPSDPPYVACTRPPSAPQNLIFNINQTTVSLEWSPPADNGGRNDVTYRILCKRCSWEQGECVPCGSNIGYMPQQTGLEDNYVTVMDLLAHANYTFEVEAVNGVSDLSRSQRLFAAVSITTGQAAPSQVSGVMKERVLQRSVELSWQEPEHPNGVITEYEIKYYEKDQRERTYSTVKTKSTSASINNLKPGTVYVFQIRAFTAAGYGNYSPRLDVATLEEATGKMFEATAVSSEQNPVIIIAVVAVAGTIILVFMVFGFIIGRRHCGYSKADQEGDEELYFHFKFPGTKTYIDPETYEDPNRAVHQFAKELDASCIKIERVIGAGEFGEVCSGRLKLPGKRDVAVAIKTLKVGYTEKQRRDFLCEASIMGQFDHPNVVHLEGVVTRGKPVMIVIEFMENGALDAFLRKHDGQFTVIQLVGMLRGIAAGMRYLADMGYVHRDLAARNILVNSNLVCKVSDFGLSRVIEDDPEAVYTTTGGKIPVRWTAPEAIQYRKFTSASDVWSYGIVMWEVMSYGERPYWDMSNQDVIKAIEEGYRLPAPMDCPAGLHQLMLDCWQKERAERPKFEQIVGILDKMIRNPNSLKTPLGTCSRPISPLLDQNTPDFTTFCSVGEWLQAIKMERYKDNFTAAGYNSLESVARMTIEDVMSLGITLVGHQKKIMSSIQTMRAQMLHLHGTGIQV
Chain of DNA topoisomerase 2-beta (Q02880 whole entry): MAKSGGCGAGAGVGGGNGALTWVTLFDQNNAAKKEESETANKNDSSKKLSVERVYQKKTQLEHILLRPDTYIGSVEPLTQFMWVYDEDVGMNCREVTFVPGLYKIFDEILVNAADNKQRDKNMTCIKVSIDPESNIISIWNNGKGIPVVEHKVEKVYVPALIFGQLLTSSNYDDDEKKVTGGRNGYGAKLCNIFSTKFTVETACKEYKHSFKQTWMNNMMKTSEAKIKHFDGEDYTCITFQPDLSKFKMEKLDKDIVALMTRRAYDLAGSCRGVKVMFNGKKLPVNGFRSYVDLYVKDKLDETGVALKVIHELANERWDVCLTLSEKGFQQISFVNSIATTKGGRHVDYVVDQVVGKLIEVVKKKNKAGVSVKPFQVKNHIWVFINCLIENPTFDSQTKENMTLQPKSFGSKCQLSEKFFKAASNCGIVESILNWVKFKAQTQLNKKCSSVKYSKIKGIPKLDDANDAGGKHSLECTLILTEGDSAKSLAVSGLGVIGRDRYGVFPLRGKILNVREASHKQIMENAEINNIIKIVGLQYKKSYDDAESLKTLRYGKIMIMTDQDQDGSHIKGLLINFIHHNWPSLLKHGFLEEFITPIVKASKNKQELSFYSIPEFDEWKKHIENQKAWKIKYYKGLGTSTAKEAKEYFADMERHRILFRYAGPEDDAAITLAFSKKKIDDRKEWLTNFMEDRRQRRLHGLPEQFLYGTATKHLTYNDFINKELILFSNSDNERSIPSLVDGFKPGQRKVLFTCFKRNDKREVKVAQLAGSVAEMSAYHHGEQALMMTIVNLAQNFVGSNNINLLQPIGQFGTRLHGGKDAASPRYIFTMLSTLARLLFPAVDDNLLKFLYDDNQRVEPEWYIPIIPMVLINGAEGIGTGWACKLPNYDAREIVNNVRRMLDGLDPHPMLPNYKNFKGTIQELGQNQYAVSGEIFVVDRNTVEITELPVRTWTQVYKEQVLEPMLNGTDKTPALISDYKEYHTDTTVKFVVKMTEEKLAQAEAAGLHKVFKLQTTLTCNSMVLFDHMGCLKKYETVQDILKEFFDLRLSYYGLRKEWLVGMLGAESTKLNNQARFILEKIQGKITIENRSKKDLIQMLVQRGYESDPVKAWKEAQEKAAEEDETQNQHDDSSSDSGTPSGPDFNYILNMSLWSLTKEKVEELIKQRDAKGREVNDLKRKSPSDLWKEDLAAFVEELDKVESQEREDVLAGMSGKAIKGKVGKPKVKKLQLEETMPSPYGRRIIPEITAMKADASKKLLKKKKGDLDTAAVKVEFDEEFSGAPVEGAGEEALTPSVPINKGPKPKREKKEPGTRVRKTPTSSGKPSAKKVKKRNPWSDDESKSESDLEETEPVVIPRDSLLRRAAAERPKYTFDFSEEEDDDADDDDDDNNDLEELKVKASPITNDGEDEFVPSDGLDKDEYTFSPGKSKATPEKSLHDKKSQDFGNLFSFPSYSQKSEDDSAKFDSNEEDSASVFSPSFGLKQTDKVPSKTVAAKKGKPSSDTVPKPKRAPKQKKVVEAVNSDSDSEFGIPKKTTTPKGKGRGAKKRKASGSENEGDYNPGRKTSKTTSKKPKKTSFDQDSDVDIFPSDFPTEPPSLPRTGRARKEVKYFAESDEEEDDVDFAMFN
Chain of Cyclin-dependent kinase 4 (P11802 whole entry, canonical isoform): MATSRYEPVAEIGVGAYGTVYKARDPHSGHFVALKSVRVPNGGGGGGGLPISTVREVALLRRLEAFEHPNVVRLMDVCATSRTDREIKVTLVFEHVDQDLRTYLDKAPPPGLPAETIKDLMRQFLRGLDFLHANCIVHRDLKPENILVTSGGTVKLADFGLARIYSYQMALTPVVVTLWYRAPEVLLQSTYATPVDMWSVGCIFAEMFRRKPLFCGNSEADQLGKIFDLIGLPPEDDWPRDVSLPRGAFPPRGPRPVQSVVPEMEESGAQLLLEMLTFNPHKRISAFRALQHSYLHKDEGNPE
Chain of Ras-related protein Rab-6A (P20340 whole entry): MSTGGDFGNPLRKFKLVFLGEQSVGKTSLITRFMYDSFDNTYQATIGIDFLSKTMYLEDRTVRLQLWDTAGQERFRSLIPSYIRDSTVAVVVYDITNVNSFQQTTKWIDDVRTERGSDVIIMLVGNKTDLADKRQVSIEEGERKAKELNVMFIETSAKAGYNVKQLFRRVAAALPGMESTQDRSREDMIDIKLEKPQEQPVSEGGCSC
Chain of Protein-tyrosine kinase 2-beta (Q14289 whole entry): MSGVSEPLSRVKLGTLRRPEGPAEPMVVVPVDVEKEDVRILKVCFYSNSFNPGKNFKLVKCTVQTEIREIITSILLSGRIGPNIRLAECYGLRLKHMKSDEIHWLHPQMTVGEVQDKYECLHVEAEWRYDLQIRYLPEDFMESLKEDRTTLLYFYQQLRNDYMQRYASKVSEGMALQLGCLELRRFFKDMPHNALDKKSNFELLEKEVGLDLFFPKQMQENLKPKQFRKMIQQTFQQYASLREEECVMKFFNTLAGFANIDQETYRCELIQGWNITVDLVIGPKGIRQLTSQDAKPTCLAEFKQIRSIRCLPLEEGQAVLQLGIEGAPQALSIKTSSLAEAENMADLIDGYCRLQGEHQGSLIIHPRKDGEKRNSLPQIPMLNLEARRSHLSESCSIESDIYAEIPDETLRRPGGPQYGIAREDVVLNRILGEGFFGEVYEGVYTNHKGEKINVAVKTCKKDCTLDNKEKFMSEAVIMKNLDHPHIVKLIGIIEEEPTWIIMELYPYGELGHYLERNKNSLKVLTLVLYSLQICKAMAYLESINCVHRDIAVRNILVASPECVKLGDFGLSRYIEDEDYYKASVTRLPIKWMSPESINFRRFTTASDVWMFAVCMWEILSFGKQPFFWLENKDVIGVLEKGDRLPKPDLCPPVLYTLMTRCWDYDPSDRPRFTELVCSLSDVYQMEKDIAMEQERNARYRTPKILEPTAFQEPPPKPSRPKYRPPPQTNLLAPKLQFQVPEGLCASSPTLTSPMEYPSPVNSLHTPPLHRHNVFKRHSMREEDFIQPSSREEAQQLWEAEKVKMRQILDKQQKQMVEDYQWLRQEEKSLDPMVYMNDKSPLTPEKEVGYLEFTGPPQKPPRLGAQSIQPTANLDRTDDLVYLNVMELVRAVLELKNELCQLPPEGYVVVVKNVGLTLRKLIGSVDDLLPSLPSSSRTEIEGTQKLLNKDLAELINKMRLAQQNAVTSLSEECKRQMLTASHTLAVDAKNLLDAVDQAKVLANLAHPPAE

Row | Kd [1] | Kd [3] | Kd [4] | Kd [5] | Kd [6] | Kd (DNA topoisomerase 2-beta) | SMILES | Kd [2] | Kd (Ephrin type-A receptor 7) | Kd (Ephrin type-B receptor 4) | Kd [7]
1 | > 30 µM (inactive) | > 30 µM (inactive) | > 30 µM (inactive) | > 30 µM (inactive) | 0.033 µM | > 30 µM (inactive) | CCN(CCCOc1ccc2c(Nc3cc(CC(=O)Nc4cccc(F)c4)n[nH]3)ncnc2c1)CCOP(=O)(O)O [BARASERTIB] | > 30 µM (inactive) | > 30 µM (inactive) | > 30 µM (inactive) | –
2 | > 30 µM (inactive) | – | – | – | > 30 µM (inactive) | > 30 µM (inactive) | COc1cc2c(Oc3ccc4[nH]c(C)cc4c3F)ncnc2cc1OCCCN1CCCC1 [CEDIRANIB] | – | – | – | –
3 | > 30 µM (inactive) | – | – | – | > 30 µM (inactive) | > 30 µM (inactive) | COc1cc2c(N3CCN(C(=O)Nc4ccc(OC(C)C)cc4)CC3)ncnc2cc1OCCCN1CCCCC1 [TANDUTINIB] | – | – | – | –
4 | – | > 30 µM (inactive) | > 30 µM (inactive) | > 30 µM (inactive) | > 30 µM (inactive) | > 30 µM (inactive) | CCN1CCN(Cc2ccc(Nc3ncc(F)c(-c4cc(F)c5nc(C)n(C(C)C)c5c4)n3)nc2)CC1 [ABEMACICLIB] | – | – | > 30 µM (inactive) | 0.013 µM (active)
5 | > 30 µM (inactive) | > 30 µM (inactive) | > 30 µM (inactive) | > 30 µM (inactive) | > 30 µM (inactive) | > 30 µM (inactive) | O=C(O)c1ccc2c(c1)nc(Nc1cccc(Cl)c1)c1ccncc12 [SILMITASERTIB] | > 30 µM (inactive) | > 30 µM (inactive) | > 30 µM (inactive) | 17.3 µM (active)
6 | > 30 µM (inactive) | – | – | – | > 30 µM (inactive) | > 30 µM (inactive) | CC1(C)CNc2cc(NC(=O)c3cccnc3NCc3ccncc3)ccc21 [MOTESANIB] | – | – | – | –
7 | > 30 µM (inactive) | – | – | – | > 30 µM (inactive) | > 30 µM (inactive) | Cn1cnc2c(F)c(Nc3ccc(Br)cc3Cl)c(C(=O)NOCCO)cc21 [SELUMETINIB] | – | – | – | –
8 | > 30 µM (inactive) | – | – | – | > 30 µM (inactive) | > 30 µM (inactive) | C[C@@]1(C(=O)Nc2ccc(F)nc2)CCCN1c1nc(Nc2cc(C3CC3)n[nH]2)c2cccn2n1 [BMS-754807] | – | – | – | –
9 | > 30 µM (inactive) | > 30 µM (inactive) | > 30 µM (inactive) | > 30 µM (inactive) | > 30 µM (inactive) | > 30 µM (inactive) | Cn1c(=O)n(-c2ccc(C(C)(C)C#N)cc2)c2c3cc(-c4cnc5ccccc5c4)ccc3ncc21 [DACTOLISIB] | > 30 µM (inactive) | > 30 µM (inactive) | > 30 µM (inactive) | –
10 | > 30 µM (inactive) | – | – | – | > 30 µM (inactive) | > 30 µM (inactive) | CN(C)C/C=C/C(=O)Nc1cc2c(Nc3ccc(F)c(Cl)c3)ncnc2cc1O[C@H]1CCOC1 [AFATINIB] | – | – | – | –

Row | SMILES | Kd [1] | Kd [3] | Kd [4] | Kd [5] | Kd [6] | Kd (DNA topoisomerase 2-beta) | Kd [2] | Kd (Ephrin type-A receptor 7) | Kd (Ephrin type-B receptor 4) | Kd [7]
11 | COCCN1CCN(Cc2ccc(-c3n[nH]c4c3C(=O)c3c(NC(=O)NN5CCOCC5)cccc3-4)cc2)CC1 [RGB-286638] | > 30 µM (inactive) | 1.22 µM (active) | > 30 µM (inactive) | > 30 µM (inactive) | > 30 µM (inactive) | > 30 µM (inactive) | > 30 µM (inactive) | > 30 µM (inactive) | > 30 µM (inactive) | 0.007 µM (active)
12 | C[C@]1(O)C[C@@H](c2nc(-c3ccc4ccc(-c5ccccc5)nc4c3)c3c(N)nccn32)C1 [LINSITINIB] | > 30 µM (inactive) | – | – | > 30 µM (inactive) | > 30 µM (inactive) | > 30 µM (inactive) | > 30 µM (inactive) | > 30 µM (inactive) | > 30 µM (inactive) | –
13 | CN(c1ncccc1CNc1nc(Nc2ccc3c(c2)CC(=O)N3)ncc1C(F)(F)F)S(C)(=O)=O [PF-00562271] | > 30 µM (inactive) | – | – | – | > 30 µM (inactive) | > 30 µM (inactive) | > 30 µM (inactive) | – | > 30 µM (inactive) | 0.845 µM (active)
14 | NC[C@@](O)(c1ccc(Cl)cc1)c1ccc(-c2cn[nH]c2)cc1 [AT-13148] | > 30 µM (inactive) | > 30 µM (inactive) | > 30 µM (inactive) | > 30 µM (inactive) | – | > 30 µM (inactive) | > 30 µM (inactive) | > 30 µM (inactive) | > 30 µM (inactive) | > 30 µM (inactive)
